The NIST ThermoML archive (doi:10.1021/je0301895)

Legend:
[1] = Solid-liquid equilibrium temperature; settings: 101.3 kPa; Crystal
[2] = 298.15 K; 101.33 kPa; Liquid
[3] = xn = mol fraction of the nth substance listed; settings: 298.15 K, 101 kPa, Liquid

CCCCCCCCN [1-octanamine]
Settings	Solid-liquid equilibrium temperature [K]	mass density [kg/m3]
[1]	273.37	–
[2]	–	779.95

CCCCCCCCN [1-octanamine] + CCCCCCCCCCCO
[3]
Settings	excess molar volume [m3/mol]
x2 = 0.0752	-2.147e-07
x2 = 0.1043	-2.984e-07
x2 = 0.1334	-3.833e-07
x2 = 0.2069	-5.724e-07
x2 = 0.3217	-8.29e-07
x2 = 0.4007	-9.437e-07
x2 = 0.4491	-9.846e-07
x2 = 0.4941	-1.008e-06
x2 = 0.5463	-1.008e-06
x2 = 0.5958	-9.803e-07
x2 = 0.639	-9.391e-07
x2 = 0.6894	-8.58e-07
x2 = 0.7458	-7.411e-07
x2 = 0.7961	-6.06e-07
x2 = 0.873	-4.122e-07
x2 = 0.9158	-2.804e-07

CCCCCCCCN [1-octanamine] + CCCCCCCCCCO
[3]
Settings	excess molar volume [m3/mol]
x2 = 0.0791	-2.401e-07
x2 = 0.1302	-3.963e-07
x2 = 0.2056	-6.005e-07
x2 = 0.2788	-7.66e-07
x2 = 0.3263	-8.612e-07
x2 = 0.3863	-9.584e-07
x2 = 0.422	-1.002e-06
x2 = 0.4623	-1.03e-06
x2 = 0.5138	-1.042e-06
x2 = 0.5525	-1.039e-06
x2 = 0.5811	-1.023e-06
x2 = 0.6153	-9.952e-07
x2 = 0.6452	-9.534e-07
x2 = 0.6956	-8.646e-07
x2 = 0.7565	-7.349e-07
x2 = 0.8463	-4.965e-07
x2 = 0.9025	-3.208e-07
x2 = 0.97	-1.278e-07

CCCCCCCCN [1-octanamine] + CCCCCCCCCO
[3]
Settings	excess molar volume [m3/mol]
x2 = 0.0489	-1.701e-07
x2 = 0.1572	-4.742e-07
x2 = 0.2155	-6.354e-07
x2 = 0.2763	-7.661e-07
x2 = 0.3283	-8.704e-07
x2 = 0.356	-9.277e-07
x2 = 0.4125	-1.005e-06
x2 = 0.4566	-1.043e-06
x2 = 0.4998	-1.055e-06
x2 = 0.5326	-1.057e-06
x2 = 0.5732	-1.049e-06
x2 = 0.6064	-1.016e-06
x2 = 0.637	-9.761e-07
x2 = 0.6602	-9.511e-07
x2 = 0.7321	-8.074e-07
x2 = 0.7905	-6.629e-07
x2 = 0.8753	-4.313e-07
x2 = 0.961	-1.661e-07

CCCCCCCCN [1-octanamine] + CCCCCCCCO
[3]
Settings	excess molar volume [m3/mol]
x2 = 0.043	-1.921e-07
x2 = 0.13	-4.625e-07
x2 = 0.2358	-7.264e-07
x2 = 0.3041	-8.581e-07
x2 = 0.347	-9.393e-07
x2 = 0.4158	-1.024e-06
x2 = 0.4571	-1.062e-06
x2 = 0.5174	-1.071e-06
x2 = 0.554	-1.068e-06
x2 = 0.5877	-1.052e-06
x2 = 0.6385	-1.012e-06
x2 = 0.709	-9.034e-07
x2 = 0.7589	-8.079e-07
x2 = 0.875	-5.102e-07
x2 = 0.929	-3.207e-07
x2 = 0.992	-7.24e-08

CCCCCCCCCCCO [1-undecanol]
Settings	Solid-liquid equilibrium temperature [K]	mass density [kg/m3]
[1]	289.63	–
[2]	–	829.34

CCCCCCCCCCO [decan-1-ol]
Settings	Solid-liquid equilibrium temperature [K]	mass density [kg/m3]
[1]	278.67	–
[2]	–	826.64

CCCCCCCCCO [nonan-1-ol]
Settings	Solid-liquid equilibrium temperature [K]	mass density [kg/m3]
[1]	268.1	–
[2]	–	824.6

CCCCCCCCO [octan-1-ol]
Settings	Solid-liquid equilibrium temperature [K]	mass density [kg/m3]
[1]	258.03	–
[2]	–	822.21
